Tested on: Rat Hydrochloric Acid-induced Cystitis Model
Experiment: Evaluation in a rat hydrochloric acid-induced cystitis model (cystometry)
Format: in vivo
Procedure: On day 1, Crlj:CD(SD) male rats at 8 weeks of age were anesthetized by 2% isofurane inhalation and the abdomen of the rats were opened. After cannula was inserted into the bladder and fixed, the incision was closed with suture. On day 2, 0.2 N hydrochloric acid was injected into the bladder through cannula for 15 min to induce cystitis. On day 3, the first oral administration of a drug was performed. Since then, the drug was administrated once a day continuously for 7 days. As a retinoid drug, 3 mg/kg tamibarotene (Am80, 4-[(5,6,7,8-tetrahydro-5,5,8,8-tetramethyl-2-naphthalenyl)-carbamoyl] benzoic acid) suspended in 0.5% carboxymethylcellulose was orally administered. For the control group, 0.5% carboxymethylcellulose was orally administered. On day 10, bladder function under unanesthetized and unrestrained state was evaluated by cystometry. Via a three-way stopcock, warm saline (37° C.) was infused into the tube which was inserted into the bladder. At the other end of a three-way stopcock, bladder pressure was measured for 60 min by a pressure amplifier through a pressure transducer. At the same time, the weight change of excreted urine was measured using a balance. From these measured data, basal bladder pressure, maximum bladder pressure, micturition interval, and micturition volume were calculated. 5 rats were used in each group, control and tamibarotene group.
Values were indicated as average ±standard error. The difference between averages of control group and tamibarotene group was evaluated by Student's t-test (***p<0.001 compared with control).

[1] = 3 mg/kg oral once a day for 7 days, cystometry on day 10, unanesthetized unrestrained rats, average ± standard error

## CC1(C)CCC(C)(C)c2cc(NC(=O)c3ccc(C(=O)O)cc3)ccc21 [Tamibarotene, 4-[(5,6,7,8-tetrahydro-5,5,8,8-tetramethyl-2-naphthalenyl)-carbamoyl] benzoic acid]
[1]
  Basal bladder pressure: 15.1 ± 2.8 mmHg
  Maximum bladder pressure: 36.6 ± 6.0 mmHg
3 mg/kg oral once a day for 7 days, cystometry on day 10, average ± standard error
  Micturition volume: 0.61 ± 0.24 g
3 mg/kg oral once a day for 7 days, cystometry on day 10, average ± standard error, ***p<0.001 compared with control
  Micturition interval: 884 ± 113*** second
3 mg/kg tamibarotene-administered group vs control, Student's t-test
  Micturition interval compared to control group (in words): significantly improved
